Experimental data reported in publication PMC7496091, “Small‐Molecule Inhibitors Targeting Sterol 14α‐Demethylase (CYP51): Synthesis, Molecular Modelling and Evaluation Against Candida albicans” (Chemmedchem, 2020).
Where two headings read alike, the source gives them in different places.

How the values were obtained:
[1] = molecular target: T1, Δ60HsCYP51 (Homo sapiens, UniProt Q16850); settings: read-out: K d Δ60HsCYP51 (Hs); cited from earlier work
[2] = molecular target: T1, Δ60HsCYP51; settings: cited from earlier work; for IC50: read-out: IC50 Δ60HsCYP51 (Hs), 0.4 μM Δ60HsCYP51 ref 21
[3] = molecular target: T2, CaCYP51 (Candida albicans, UniProt P10613); settings: 1 μM CaCYP51 ref 21; read-out: IC50 CaCYP51 (Ca) (converted); cited from earlier work
T2 construct: made in house; host or cells: Escherichia coli
T2 sequence (P10613 whole entry): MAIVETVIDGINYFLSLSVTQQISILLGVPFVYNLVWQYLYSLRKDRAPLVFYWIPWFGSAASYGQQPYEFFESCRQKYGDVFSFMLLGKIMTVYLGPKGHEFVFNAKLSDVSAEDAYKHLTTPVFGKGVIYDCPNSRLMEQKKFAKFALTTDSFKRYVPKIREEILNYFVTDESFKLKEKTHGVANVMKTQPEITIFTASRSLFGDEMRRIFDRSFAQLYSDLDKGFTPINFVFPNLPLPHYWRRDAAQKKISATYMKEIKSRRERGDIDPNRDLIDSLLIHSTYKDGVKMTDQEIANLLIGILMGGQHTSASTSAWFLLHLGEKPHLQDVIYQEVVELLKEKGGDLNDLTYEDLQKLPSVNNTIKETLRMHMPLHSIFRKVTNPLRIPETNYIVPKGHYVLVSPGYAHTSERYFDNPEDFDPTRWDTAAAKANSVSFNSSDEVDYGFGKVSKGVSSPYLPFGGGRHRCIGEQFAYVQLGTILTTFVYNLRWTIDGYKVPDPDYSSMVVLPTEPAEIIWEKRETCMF

[4] = tested on: C. albicans CA14; experiment: Sterol profile analysis by GC-MS, strain CA14; type: cell-based, Candida albicans; settings: CA14, % of total sterols, half the MIC (fluconazole 0.06, 5 d 0.06, 5 f 0.015, 12 c 0.5 μg/mL), 18 h
Protocol: (§1) Sterols were then extracted and analysed by GC‐MS and sterol profiles (% of the total sterol extracted) were determined (Table 6).
(§2) Sterol profile analysis of C. albicans strains. […] Cells were pelleted and washed with ddH2O and non‐saponifiable lipids were extracted using methanolic KOH as reported previously.41 Samples were dried in a vacuum centrifuge and were derivatised by the addition of 100 μL 90 % BSTFA / 10 % TMCS (Sigma), 200 μL anhydrous pyridine (Sigma) and heating for 2 h at 80 °C. TMS‐derivatised sterols were analysed and identified by using GC/MS (Thermo 1300 GC coupled to a Thermo ISQ mass spectrometer, Thermo Scientific) with reference to retention times and fragmentation spectra for known standards. GC/MS data files were analysed using Xcalibur software (Thermo Scientific) to determine sterol profiles for all isolates and to integrate peak areas.

[5] = tested on: C. albicans SC5314; experiment: MIC, CLSI M27-S4 broth dilution, strain SC5314; type: cell-based, Candida albicans; settings: Candida albicans, SC5314, 48 hours
Protocol: The susceptibilities of the SC5314 and CA14C. albicans (azole sensitive) strains to all novel azole derivatives (5, 7 and 12) were determined (Table 3) using the standardized CLSI M27‐S4 broth dilution method.28
Susceptibility testing of C. albicans strains. […] Stock solutions of each agent were prepared in DMSO. Further dilutions were made in RPMI‐1640, and the final concentration of DMSO was 1 % (v/v). The final testing concentrations for all compounds ranged from 0.03–16 μg mL^−1.

[6] = molecular target: T1, Δ60HsCYP51; experiment: CYP51 reconstitution assay (IC50), Δ60HsCYP51; type: biochemical; settings: 0.25 μM Δ60HsCYP51, lanosterol as substrate; read-out: IC50 Δ60HsCYP51 (Hs)
Protocol: CYP51 reconstitution assays. […] Azoles were introduced using 2.5 μL of stock solutions in DMSO. […] Each IC50 experiment was performed in duplicate.

[7] = molecular target: T1, Δ60HsCYP51; experiment: Azole ligand binding titration (type II difference spectra, Kd), Δ60HsCYP51; settings: for Kd: 3 μM native Δ60HsCYP51, mean ± SD (12 c n=6), read-out: K d Δ60HsCYP51 (Hs); for Type of difference binding spectra with Δ60HsCYP51: titration with Δ60HsCYP51
Protocol: Recombinant CYP51 protein studies.
(§3) Dissociation constant (K d). The K d for each CYP51‐azole complex was determined by non‐linear regression (Levenberg‐Marquardt algorithm) using a rearrangement of the Morrison equation for tight ligand binding.34 Where ligand binding was weaker, the Michaelis‐Menten equation was used to fit the data (Figure S5). K d values were determined for each of the three replicate titrations per azole compound and then mean K d values and standard deviations calculated.

[8] = molecular target: T2, CaCYP51; experiment: biochemical; type: binding; settings: 3 μM native CaCYP51, mean of three replicates ± SD; read-out: K d CaCYP51
Text: […]. There were no signs of compound insolubility (visible or rising background absorbance) during the ligand titrations. […] […].
The rearranged Morrison equation34 gave the best fit to the ligand saturation curves against CaCYP51 (Figure 5) indicating the selected compounds bound tightly to the purified CaCYP51 protein in free solution. Likewise the rearranged Morrison equation34 gave the best fit for binding 5 d and 5 f to Δ60HsCYP51, thus indicating tight binding in free solution (Figure 5). […].
Recombinant CYP51 protein studies. […] All azole ligand binding determinations were performed in triplicate, except the binding of compound 12 c with Δ60HsCYP51 which was performed six times. CYP51 protein samples were diluted with 0.1 M Tris⋅HCl (pH 8.1) and 25 % (w/v) glycerol to the required concentration.
as §3

[9] = molecular target: T2, CaCYP51; experiment: biochemical; settings: for IC50: 1 μM CaCYP51, lanosterol as substrate, curve-fitted, read-out: CaCYP51 IC50; for Ki: Morrison equation estimates, read-out: Kapp/i from the inhibition profiles with CaCYP51
Protocol: […]. […] […]. CYP51 reconstitution assays. IC50 values were determined for individual azole compounds18, 30 using lanosterol as substrate. Azoles were introduced using 2.5 μL of stock solutions in DMSO. CaCYP51 assays contained 1 μM CaCYP51 and 2 μM Homo sapiens cytochrome P450 reductase (HsCPR – UniProtKB accession number P16435) and were incubated for 20 min at 37 °C. HsCYP51 assays contained 0.25 μM Δ60HsCYP51 and 1 μM HsCPR and were incubated for 10 min at 37 °C. Each IC50 experiment was performed in duplicate.

[10] = tested on: C. albicans CA14; experiment: MIC, CLSI M27-S4 broth dilution, strain CA14; type: cell-based, Candida albicans; settings: Candida albicans, CA14, 48 hours
Protocol: Susceptibility testing of C. albicans strains. […] Stock solutions of each agent were prepared in DMSO. […] The final testing concentrations for all compounds ranged from 0.03–16 μg mL^−1.

[11] = tested on: C. albicans SC5314; experiment: Sterol profile analysis by GC-MS, strain SC5314; type: cell-based, Candida albicans; settings: SC5314, % of total sterols, half the MIC (fluconazole 0.06, 5 d 0.06, 5 f 0.015, 12 c 0.5 μg/mL), 18 h
Protocol: as §1, §2

T1 sequence (Q16850 61-509, stated change not applied): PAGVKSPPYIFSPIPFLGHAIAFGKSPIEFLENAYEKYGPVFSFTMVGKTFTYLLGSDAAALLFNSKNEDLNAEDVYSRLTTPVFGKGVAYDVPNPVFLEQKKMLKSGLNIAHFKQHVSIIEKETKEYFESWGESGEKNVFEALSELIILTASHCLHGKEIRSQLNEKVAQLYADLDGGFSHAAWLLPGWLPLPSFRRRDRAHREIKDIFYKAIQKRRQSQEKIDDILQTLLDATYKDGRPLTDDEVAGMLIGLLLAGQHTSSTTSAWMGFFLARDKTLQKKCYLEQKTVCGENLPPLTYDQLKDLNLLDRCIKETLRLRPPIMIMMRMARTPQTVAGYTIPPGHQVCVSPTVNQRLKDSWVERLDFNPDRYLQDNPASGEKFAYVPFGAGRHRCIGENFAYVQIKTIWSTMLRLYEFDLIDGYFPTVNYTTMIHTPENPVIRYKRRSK
T1 sequence (P16435 2-677, stated change not applied, further chain): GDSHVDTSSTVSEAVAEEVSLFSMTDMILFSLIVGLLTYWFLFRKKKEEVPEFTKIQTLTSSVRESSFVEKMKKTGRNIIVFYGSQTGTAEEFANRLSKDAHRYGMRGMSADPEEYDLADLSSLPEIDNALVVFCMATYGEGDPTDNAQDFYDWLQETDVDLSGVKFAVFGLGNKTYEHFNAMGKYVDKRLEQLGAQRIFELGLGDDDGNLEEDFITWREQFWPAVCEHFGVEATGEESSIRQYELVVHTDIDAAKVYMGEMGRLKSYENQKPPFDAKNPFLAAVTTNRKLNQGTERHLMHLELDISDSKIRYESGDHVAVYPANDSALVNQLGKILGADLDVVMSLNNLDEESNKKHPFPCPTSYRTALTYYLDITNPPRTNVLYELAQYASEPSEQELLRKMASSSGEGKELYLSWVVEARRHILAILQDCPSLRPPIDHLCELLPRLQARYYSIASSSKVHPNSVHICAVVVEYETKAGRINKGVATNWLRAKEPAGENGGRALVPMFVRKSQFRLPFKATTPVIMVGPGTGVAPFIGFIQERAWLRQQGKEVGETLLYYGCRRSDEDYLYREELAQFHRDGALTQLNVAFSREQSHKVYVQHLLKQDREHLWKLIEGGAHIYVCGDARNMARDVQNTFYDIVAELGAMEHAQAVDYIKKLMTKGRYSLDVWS

Row | MIC ([5]; 80 % reduction in turbidity) [µg/mL] | MIC ([5]; value in brackets) [µM] | IC50 [6] [nM] | Kd [7] [nM] | Type of difference binding spectra with Δ60HsCYP51 [7] | Kd [8] [nM] | IC50 [9] [nM] | Ki [9] [nM] | MIC ([10]; 80 % reduction in turbidity) [µg/mL] | MIC ([10]; value in brackets) [µM] | melting point [°C] | SMILES | Sterol composition: diol (14α‐methyl ergosta‐8,24(28)‐dien‐3,6‐diol) [4] [%] | Sterol composition: eburicol [4] [%] | Sterol composition: ergosterol [4] [%] | Sterol composition: lanosterol [4] [%] | Sterol composition: total 14α‐methylated sterols [4] [%] | Sterol composition: diol (14α‐methyl ergosta‐8,24(28)‐dien‐3,6‐diol) [11] [%] | Sterol composition: eburicol [11] [%] | Sterol composition: ergosterol [11] [%] | Sterol composition: lanosterol [11] [%] | further results
1 |  |  |  |  |  |  |  |  |  |  |  | CCC(C)n1ncn(-c2ccc(N3CCN(c4ccc(OCC5COC(Cn6cncn6)(c6ccc(Cl)cc6Cl)O5)cc4)CC3)cc2)c1=O (stereo not drawn) [itraconazole] |  |  |  |  |  |  |  |  |  | Kd [1]: 92 nM; IC50 [2]: 70000 nM; IC50 [3]: 400 nM
2 |  |  |  |  |  |  |  |  |  |  |  | CC(=O)N1CCN(c2ccc(OCC3COC(Cn4ccnc4)(c4ccc(Cl)cc4Cl)O3)cc2)CC1 (stereo not drawn) [ketoconazole] |  |  |  |  |  |  |  |  |  | IC50 [2]: 4500 nM; IC50 [3]: 500 nM
3 | < 0.03 | < 0.07 | 3730 | 74 ± 13 | type II difference binding spectra | 62 ± 17 | 460 | 200 | < 0.03 | < 0.07 | 148 to 150 | O=C(NCc1ccc(Cl)cc1Cl)C(Cn1ccnc1)c1ccc(Cl)cc1 (stereo not drawn) [Compound 5 f, 2‐(4‐Chlorophenyl)‐N‐(2,4‐dichlorobenzyl)‐3‐(1H‐imidazol‐1‐yl)propanamide] | 7.5±4.6 | 26.1±0.1 | 4.3±0.5 | 43.6±1.8 | 77.2 | 11.7±1.4 | 21.0±3.3 | 9.1±5.5 | 38.6±3.6 | Sterol composition: total 14α‐methylated sterols [11]: 89.3%
4 |  |  |  |  |  |  |  |  |  |  |  | O[C@@](Cn1cnnn1)(c1ccc(F)cc1F)C(F)(F)c1ccc(-c2ccc(OCC(F)(F)F)cc2)cn1 [oteseconazole] |  |  |  |  |  |  |  |  |  | Inhibition of Δ60HsCYP51 activity ([2]; at concentrations up to 50 μM ref 31): did not inhibit
5 | 0.125 | 0.33 | 3370 | 45 ± 13 | type II difference binding spectra | 17 ± 5 | 390 | 160 | 0.125 | 0.33 | 160 to 162 | O=C(NCc1ccc(Cl)cc1)C(Cn1ccnc1)c1ccc(Cl)cc1 (stereo not drawn) [Compound 5 d, N‐(4‐Chlorobenzyl)‐2‐(4‐chlorophenyl)‐3(1H‐imidazol‐1‐yl)propanamide] | 8.2±6.0 | 26.4±5.0 | 7.8±6.5 | 40.4±2.2 | 90.0 | 17.6±7.1 | 20.5±4.4 | 2.7±2.3 | 41.0±5.5 | Sterol composition: total 14α‐methylated sterols [11]: 95.8%
6 | 1 | 2.02 | 152000 | 923 ± 509 | type II difference binding spectra | 43 ± 18 | 330 | 110 | 1 | 2.02 | 122 to 124 | O=C(NCc1ccc(NS(=O)(=O)c2ccc(Cl)cc2)cc1)C(Cn1cncn1)c1ccccc1 (stereo not drawn) [Compound 12 c, N‐(4‐((4‐chlorophenyl)sulfonamido)benzyl)‐2‐phenyl‐3‐(1H‐1,2,4‐triazol‐1‐yl)propanamide] | 9.2±1.2 | 22.4±1.1 | 3.5±1.3 | 43.6±1.5 | 93.3 | 7.2±5.2 | 14.0±3.5 | 24.9±5.5 | 34.5±2.9 | Sterol composition: total 14α‐methylated sterols [11]: 70.6%
